Measurements published in PubChem BioAssay AID330 (DTP/NCI, 2004).
Where “and” joins values, the source holds several entries; their conditions need not be identical. Equal entries are not always repeated. Toxic doses and inconclusive results are not listed.

Test system: P388 leukemia ip, CD2F1 mice, survival T/C
Test: NCI In Vivo Anticancer Drug Screen. Data for tumor model P388 Leukemia (intraperitoneal) in CD2F1 (CDF1) mice
Details: endpoint: median survival time, higher = longer survival
Method in brief: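 Mice carrying the transplanted tumor received test compound or vehicle. Survival was recorded in each group, and the value is the treated-group measurement divided by that of the vehicle-treated control group.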

[1] = dose: 50.0 mg/kg/injection, schedule: Q01DX009 (ip), vehicle: Klucel (hydroxypropylcellulose) (HPC)
[2] = dose: 100.0 mg/kg/injection, schedule: Q01DX009 (ip), vehicle: Klucel (hydroxypropylcellulose) (HPC)
[3] = dose: 200.0 mg/kg/injection, schedule: Q01DX009 (ip), vehicle: Klucel (hydroxypropylcellulose) (HPC)
[4] = dose: 60.0 mg/kg/injection, schedule: Q01DX005 (ip), vehicle: saline with Tween-80
[5] = dose: 120.0 mg/kg/injection, schedule: Q01DX005 (ip), vehicle: saline with Tween-80
[6] = dose: 240.0 mg/kg/injection, schedule: Q01DX005 (ip), vehicle: saline with Tween-80
[7] = dose: 50.0 mg/kg/injection, schedule: Q01DX009 (ip), vehicle: saline
[8] = dose: 100.0 mg/kg/injection, schedule: Q01DX009 (ip), vehicle: saline
[9] = dose: 200.0 mg/kg/injection, schedule: Q01DX009 (ip), vehicle: saline
[10] = dose: 50.0 mg/kg/injection, schedule: Q01DX005 (ip), vehicle: Klucel (hydroxypropylcellulose) (HPC)
[11] = dose: 50.0 mg/kg/injection, schedule: Q01DX005 (ip), vehicle: saline
[12] = dose: 100.0 mg/kg/injection, schedule: Q01DX005 (ip), vehicle: Klucel (hydroxypropylcellulose) (HPC)
[13] = dose: 100.0 mg/kg/injection, schedule: Q01DX005 (ip), vehicle: saline

COc1ccc(-c2cc(-c3ccccc3)[nH]c2-c2ccccc2)cc1
T/C (dose: 100.0 mg/kg/injection, schedule: Q04DX002 (ip), vehicle: saline): 98 % of control | T/C (dose: 200.0 mg/kg/injection, schedule: Q04DX002 (ip), vehicle: saline): 105 % of control | T/C (dose: 400.0 mg/kg/injection, schedule: Q04DX002 (ip), vehicle: saline): 100 % of control

Cc1oc2c(C)c3oc(=O)cc(C)c3cc2c1CCl
T/C (dose: 12.5 mg/kg/injection, schedule: Q04DX002 (ip), vehicle: saline with Tween-80): 114 % of control | T/C (dose: 25.0 mg/kg/injection, schedule: Q04DX002 (ip), vehicle: saline with Tween-80): 123 % of control | T/C (dose: 400.0 mg/kg/injection, schedule: Q05DX002 (ip), vehicle: saline with Tween-80): 98 % of control

CCOC(=O)C1(C(=O)OCC)CCC1
T/C [1]: 100 % of control | T/C [2]: 92 % of control | T/C [3]: 96 % of control | T/C (dose: 400.0 mg/kg/injection, schedule: Q01DX009 (ip), vehicle: Klucel (hydroxypropylcellulose) (HPC)): 101 % of control

COC(=O)C(C)NC(=O)C(C)NC(=O)c1cnc2ccccc2n1 (stereo unspecified)
T/C [4]: 97 % of control | T/C [5]: 99 % of control | T/C [6]: 111 % of control

C=C1CC[C@@H]2C(C)(C)CCC[C@@]2(C)[C@@H]1Cc1cc(O)ccc1O
T/C (dose: 10.0 mg/kg/injection, schedule: Q01DX009 (ip), vehicle: Klucel (hydroxypropylcellulose) (HPC)): 104 % of control | T/C (dose: 20.0 mg/kg/injection, schedule: Q01DX009 (ip), vehicle: Klucel (hydroxypropylcellulose) (HPC)): 110 % of control | T/C (dose: 40.0 mg/kg/injection, schedule: Q01DX009 (ip), vehicle: Klucel (hydroxypropylcellulose) (HPC)): 116 % of control

CC1(C)N=C(N)N=C(N)N1c1cccc(CCC(=O)Nc2ccc(S(=O)(=O)F)cc2)c1
T/C (dose: 18.8 mg/kg/injection, schedule: Q01DX009 (ip), vehicle: saline with Tween-80): 116 % of control and 118 % of control | T/C (dose: 37.5 mg/kg/injection, schedule: Q01DX009 (ip), vehicle: saline with Tween-80): 115 % of control and 118 % of control | T/C (dose: 150.0 mg/kg/injection, schedule: Q01DX009 (ip), vehicle: saline with Tween-80): 107 % of control

[CH3][Ge]([CH3])=[O]
T/C [7]: 102 % of control | T/C [8]: 91 % of control | T/C [9]: 100 % of control

COC1C(C)OC(OC2CC(C)(O)Cc3cc4c(c(O)c32)C(=O)c2c(O)cc3c(c2C4=O)OC2OC3(C)C(O)C(N(C)C=O)C2O)C(OC)C1(C)OC (stereo unspecified)
T/C (dose: 3.12 mg/kg/injection, schedule: Q04DX003 (ip), vehicle: other): 100 % of control | T/C (dose: 6.25 mg/kg/injection, schedule: Q04DX003 (ip), vehicle: other): 97 % of control | T/C (dose: 12.5 mg/kg/injection, schedule: Q04DX003 (ip), vehicle: other): 94 % of control | T/C (dose: 25.0 mg/kg/injection, schedule: Q04DX003 (ip), vehicle: other): 91 % of control | T/C (dose: 50.0 mg/kg/injection, schedule: Q04DX003 (ip), vehicle: other): 95 % of control

Nc1nc2c(c(-c3nc(N)nc4c3CCc3ccccc3-4)n1)CCc1ccccc1-2
T/C (dose: 60.0 mg/kg/injection, schedule: Q01DX005 (ip), vehicle: saline): 105 % of control | T/C (dose: 120.0 mg/kg/injection, schedule: Q01DX005 (ip), vehicle: saline): 99 % of control | T/C (dose: 240.0 mg/kg/injection, schedule: Q01DX005 (ip), vehicle: saline): 107 % of control

OCCN1CCN(CCCN2c3cc(Cl)ccc3Sc3sccc32)CC1
T/C [10]: 92 % of control | T/C [11]: 100 % of control | T/C [12]: 90 % of control | T/C [13]: 106 % of control

CN1C(=O)OC2OC(C)(c3ccc(S(=O)(=O)c4ccccc4)cc3)C(=O)CC21 (stereo unspecified)
T/C [4]: 100 % of control | T/C [5]: 97 % of control | T/C [6]: 90 % of control

CCC(Br)C1C/C=C\CC2OC(C=C=CBr)CC2O1 (stereo unspecified)
T/C (dose: 3.12 mg/kg/injection, schedule: Q01DX005 (ip), vehicle: Klucel (hydroxypropylcellulose) (HPC)): 100 % of control | T/C (dose: 3.75 mg/kg/injection, schedule: Q01DX001 (ip), vehicle: Klucel (hydroxypropylcellulose) (HPC)): 94 % of control | T/C (dose: 6.25 mg/kg/injection, schedule: Q01DX005 (ip), vehicle: Klucel (hydroxypropylcellulose) (HPC)): 95 % of control and 98 % of control | T/C (dose: 7.5 mg/kg/injection, schedule: Q01DX001 (ip), vehicle: Klucel (hydroxypropylcellulose) (HPC)): 90 % of control | T/C (dose: 12.5 mg/kg/injection, schedule: Q01DX005 (ip), vehicle: Klucel (hydroxypropylcellulose) (HPC)): 95 % of control and 104 % of control | T/C (dose: 15.0 mg/kg/injection, schedule: Q01DX001 (ip), vehicle: Klucel (hydroxypropylcellulose) (HPC)): 91 % of control | T/C (dose: 25.0 mg/kg/injection, schedule: Q01DX005 (ip), vehicle: Klucel (hydroxypropylcellulose) (HPC)): 91 % of control and 100 % of control | T/C (dose: 30.0 mg/kg/injection, schedule: Q01DX001 (ip), vehicle: Klucel (hydroxypropylcellulose) (HPC)): 91 % of control | T/C [10]: 98 % of control | T/C [12]: 96 % of control

CSc1nn(CCC#N)c(=O)[nH]c1=O
T/C (dose: 25.0 mg/kg/injection, schedule: Q01DX005 (ip), vehicle: water): 104 % of control | T/C (dose: 50.0 mg/kg/injection, schedule: Q01DX005 (ip), vehicle: water): 103 % of control | T/C (dose: 60.0 mg/kg/injection, schedule: Q01DX005 (ip), vehicle: Klucel (hydroxypropylcellulose) (HPC)): 105 % of control | T/C (dose: 100.0 mg/kg/injection, schedule: Q01DX005 (ip), vehicle: water): 110 % of control | T/C (dose: 120.0 mg/kg/injection, schedule: Q01DX005 (ip), vehicle: Klucel (hydroxypropylcellulose) (HPC)): 100 % of control | T/C (dose: 240.0 mg/kg/injection, schedule: Q01DX005 (ip), vehicle: Klucel (hydroxypropylcellulose) (HPC)): 100 % of control

CCCCc1ccc2nc(C)cc(N=[N+]=[N-])c2c1
T/C [4]: 100 % of control | T/C [5]: 98 % of control

COc1cccc(CC#N)c1O
T/C (dose: 25.0 mg/kg/injection, schedule: Q01DX009 (ip), vehicle: Klucel (hydroxypropylcellulose) (HPC)): 105 % of control | T/C [1]: 100 % of control | T/C [2]: 106 % of control

O=C(O)C1CCC(=O)N1Cc1ccccc1 (stereo unspecified)
T/C [1]: 89 % of control | T/C [2]: 100 % of control | T/C [3]: 107 % of control

CCOC(=O)C(Cc1c[nH]c2ccccc12)NC(=O)C1(O)C(O)C2(CC)C=CCN3CCC4(c5cc(C6(C(=O)OC)CC7CC(CC)CN(CCc8c6[nH]c6ccccc86)C7)c(OC)cc5N(C)C14)C32 (stereo unspecified)
T/C (dose: 2.0 mg/kg/injection, schedule: Q01DX001 (ip), vehicle: saline): 99 % of control | T/C (dose: 4.0 mg/kg/injection, schedule: Q01DX001 (ip), vehicle: saline): 118 % of control | T/C (dose: 16.0 mg/kg/injection, schedule: Q01DX001 (ip), vehicle: saline): 169 % of control | T/C (dose: 32.0 mg/kg/injection, schedule: Q01DX001 (ip), vehicle: saline): 179 % of control | T/C (dose: 64.0 mg/kg/injection, schedule: Q01DX001 (ip), vehicle: saline): 178 % of control

CSCC[C@]1(C)C(=O)N(C)[C@H](C(C)(C)C)N1C(=O)c1ccccc1
T/C [4]: 99 % of control | T/C [5]: 100 % of control | T/C [6]: 93 % of control

C[S+]1CCC(C(=O)[O-])N1 (stereo unspecified)
T/C [11]: 101 % of control | T/C [13]: 98 % of control | T/C (dose: 200.0 mg/kg/injection, schedule: Q01DX005 (ip), vehicle: saline): 98 % of control

N#C/C(=C\c1ccc(Cl)cc1)C(=O)N/N=C/c1ccc(Cl)cc1
T/C [7]: 97 % of control | T/C [8]: 97 % of control | T/C [9]: 101 % of control

COc1cccc2c(Nc3ccc4c(c3)OCO4)c(C(=O)O)cnc12
T/C (dose: 60.0 mg/kg/injection, schedule: Q01DX005 (ip), vehicle: Klucel + Tween-80): 94 % of control | T/C (dose: 120.0 mg/kg/injection, schedule: Q01DX005 (ip), vehicle: Klucel + Tween-80): 103 % of control

COc1cc(C2C(C(=O)OC/C=C/c3ccc4c(c3)OCO4)C(c3cc(OC)c(OC)c(OC)c3)C2C(=O)OC/C=C/c2ccc3c(c2)OCO3)cc(OC)c1OC (stereo unspecified)
T/C (dose: 50.0 mg/kg/injection, schedule: Q01DX009 (ip), vehicle: saline with Tween-80): 87 % of control | T/C (dose: 100.0 mg/kg/injection, schedule: Q01DX009 (ip), vehicle: saline with Tween-80): 93 % of control | T/C (dose: 200.0 mg/kg/injection, schedule: Q01DX009 (ip), vehicle: saline with Tween-80): 95 % of control | T/C (dose: 400.0 mg/kg/injection, schedule: Q01DX009 (ip), vehicle: saline with Tween-80): 102 % of control
